# According to article PMC6105845, “Nucleotide Prodrug Containing a Nonproteinogenic Amino Acid To Improve Oral Delivery of a Hepatitis C Virus Treatment” (Antimicrobial Agents and Chemotherapy, 2018):
# Assays:
# [1] = tested on: HCV GT2a replicon; assay: HCV GT2a replicon, transiently transfected Huh-1C cells; assay type: cell-based, hepatitis C virus; details: for EC50: Hepatitis C virus, GT2A, 72 h
# Protocol: GT1a, GT1b, and GT2a are authentic subgenomic replicons of the indicated strain. Creation of these HCV replicons was reported previously ([7]).
# RNA was transcribed in vitro using a MEGAscript […] kit (Ambion, Austin, TX) and transfected into Huh-Lunet and −1C cells using published methods ([21], [22]).
# The EC50s, defined as the concentration at which there was a measured 50% decrease in HCV replicon level, were determined in replicon assay as previously described ([24]). Briefly, replicon cells were seeded into 96-well plates. Compounds were serially diluted in DMSO at 200× final concentrations and then added to the assay plate. Luciferase expression was quantified after 3 days of incubation using a commercial luciferase assay (Promega, Madison, WI). Data were analyzed using GraphPad Prism 6.0 (La Jolla, CA).
# X represents log of compound concentration and Y represents replicon replication as the percentage of DMSO control. EC50s were calculated as an average from at least three independent experiments.
# [2] = Thermodynamic solubility (shaking flask, simulated intestinal fluid); assay type: physicochemical; details: for solubility thermodynamic: fessif, thermodynamic from solid, crystalline free base GS-6620, amorphous GS2
# Protocol: The samples were incubated at 37°C for 1 h, followed by centrifugation at 2,800 relative centrifugal force (RCF) for 30 min at room temperature. Thermodynamic solubility was determined with the crystalline-free base of GS-6620 or amorphous GS2 using the shaking flask method. The concentrations of the compounds in supernatants were determined by HPLC.
# [3] = Caco-2 bidirectional permeability; assay type: in vitro ADME; details: human; for Papp A→B / Papp B→A / efflux ratio: at thermodynamic solubility limit in fed simulated intestinal fluid; for efflux ratio: read-out: Efflux ratio B→A/A→B
# Protocol: Caco-2 cells between passage 43 and 71 were grown to confluence for ≥21 days on 12- or 24-well polyethylene terephthalate plates (BD Biosciences). The bidirectional permeability of compounds was tested as described previously ([8]). In brief, the donor well contained Hanks' balanced salt solution (HBSS), 10 mM HEPES (pH 6.5), and 15 mM glucose. The receiver well contained HBSS (pH 7.4) and 1% bovine serum albumin (BSA). The cells were dosed on the apical (A) or basolateral (B) side to determine forward (A to B) and reverse (B to A) permeability. Media from the donor and receiver wells were analyzed by LC-MS/MS.
# [4] = Metabolic stability in intestinal S9 fraction, hamster; assay type: in vitro ADME
# Protocol: (§1) Blood plasma and S9 stability was studied as described previously ([8]). In brief, the compounds were incubated at 2 μM in hamster, rat, dog, monkey, or human plasma samples for up to 4 h at 37°C. For S9 stability, the compounds were incubated at 2 μM in hamster, rat, dog, monkey, or human intestinal and hepatic S9 fractions for up to 90 min at 37°C in the presence of NADPH and uridine 5′-diphosphoglucuronic acid trisodium salt (UDPGA) (Sigma-Adrich). The samples were analyzed by liquid chromatography coupled to triple-quadrupole mass spectrometry (LC-MS/MS).
# (§2) The data (analyte-to-internal standard peak area ratio) were plotted on a semilog scale and fitted using an exponential fit. The half-life (t1/2) was determined assuming first-order kinetics.
# [5] = Metabolic stability in intestinal S9 fraction, monkey; assay type: in vitro ADME; details: monkey (cynomolgus)
# Protocol: as §1, §2
# [6] = Metabolic stability in intestinal S9 fraction, human; assay type: in vitro ADME; details: for half-life at 2 μM: intestinal S9 fraction
# Protocol: as §1, §2
# [7] = target: T1, CatA (Homo sapiens, UniProt P10619); assay: Ester cleavage by CatA; assay type: biochemical; details: for Amidate ester cleavage, specific activity: CatA, GS-6620-containing diastereomeric mixture was used
# T1 construct: purified from peripheral blood mononuclear cells (PBMCs) according to a previously published procedure; from tissue; host or cells: peripheral blood mononuclear cells (PBMCs)
# T1 sequence (P10619 29-480): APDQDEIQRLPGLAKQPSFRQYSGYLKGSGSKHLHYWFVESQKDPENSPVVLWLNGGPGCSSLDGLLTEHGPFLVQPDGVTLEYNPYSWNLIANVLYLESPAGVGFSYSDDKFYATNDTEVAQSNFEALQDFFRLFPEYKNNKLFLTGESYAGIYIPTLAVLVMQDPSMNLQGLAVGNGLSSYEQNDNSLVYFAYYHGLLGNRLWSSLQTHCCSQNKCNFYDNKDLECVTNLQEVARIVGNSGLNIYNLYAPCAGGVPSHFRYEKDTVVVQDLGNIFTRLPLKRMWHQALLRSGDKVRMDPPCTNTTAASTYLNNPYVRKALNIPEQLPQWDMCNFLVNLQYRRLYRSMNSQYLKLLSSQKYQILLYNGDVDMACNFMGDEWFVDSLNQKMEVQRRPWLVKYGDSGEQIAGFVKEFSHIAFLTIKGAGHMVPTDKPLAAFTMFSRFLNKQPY
# Protocol: (§3) Biochemical assays studying prodrug cleavage have been described previously ([8]). In brief, the cleavages of GS2 by CATA, CES1, CES2, and HINT1 were assessed in vitro. The reaction substrates and products were monitored over time by high-performance liquid chromatography (HPLC).
# [8] = target: T2, CES2 (Homo sapiens, UniProt O00748); assay: Ester cleavage by CES2; assay type: biochemical; details: GS-6620-containing diastereomeric mixture was used
# T2 construct: purchased R&D Systems (Minneapolis, MN)
# T2 sequence (O00748 27-559): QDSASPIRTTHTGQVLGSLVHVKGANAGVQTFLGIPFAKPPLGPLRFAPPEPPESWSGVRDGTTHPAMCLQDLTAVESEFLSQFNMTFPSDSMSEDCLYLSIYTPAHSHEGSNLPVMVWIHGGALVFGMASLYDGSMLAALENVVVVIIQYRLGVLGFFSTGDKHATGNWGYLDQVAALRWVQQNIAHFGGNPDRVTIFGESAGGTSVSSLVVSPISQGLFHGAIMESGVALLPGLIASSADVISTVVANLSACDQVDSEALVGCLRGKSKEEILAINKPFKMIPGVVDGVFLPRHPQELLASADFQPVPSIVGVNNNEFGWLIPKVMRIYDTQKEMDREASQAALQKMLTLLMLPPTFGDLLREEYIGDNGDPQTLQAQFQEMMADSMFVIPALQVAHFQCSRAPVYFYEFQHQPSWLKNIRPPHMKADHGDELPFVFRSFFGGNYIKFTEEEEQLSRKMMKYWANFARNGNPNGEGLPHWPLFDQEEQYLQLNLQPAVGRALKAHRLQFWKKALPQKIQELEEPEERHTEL
# Protocol: as §3
# [9] = fed-state simulated intestinal fluid
structure (smiles),measurement,setting,value
CC(C)OC(=O)C(C)(C)N[P@](=O)(OC[C@H]1O[C@@](C#N)(c2ccc3c(N)ncnn23)[C@](C)(O)[C@@H]1O)Oc1ccccc1 [GS2],Fold (GS2/GS-6620),"[1]; EC50 ratio, GT2a, Huh-1C",2.3
same,EC50,[1],61 ± 8 nM
same,difference in solubility between fed and fasted simulated intestinal fluid,[2],less than 30%
same,thermodynamic solubility higher than GS-6620,[2]; [9],> 30 fold
same,solubility thermodynamic,[2]; [9],430 µM
same,Papp A→B,[3],2.6 ×10⁻⁶ cm/s
same,Papp B→A,[3],6.7 ×10⁻⁶ cm/s
same,efflux ratio,[3],2.5
same,Papp A→B at 10 μM,[3]; tested at 10 μM,0.4 ×10⁻⁶ cm/s
same,Papp B→A at 10 μM,[3]; tested at 10 μM,9.3 ×10⁻⁶ cm/s
same,half-life at 2 μM,[4],1.12 h
same,half-life at 2 μM,[5],3.83 h
same,stability in human intestinal S9 greater than GS-6620,[6],35 fold
same,half-life at 2 μM,[6],9.5 h
same,"Amidate ester cleavage, specific activity",[7],385 pmol/min/µg
same,CatA activity lower than toward GS-6620-containing diastereomeric mixture,[7]; isopropyl ester cleavage,11 fold
same,"Amidate ester cleavage, specific activity",[8],Stable
"CC(C)OC(=O)[C@H](C)N[P@](=O)(OC[C@H]1O[C@@](C#N)(c2ccc3c(N)ncnn23)[C@](C)(O)[C@@H]1OC(=O)C(C)C)Oc1ccccc1 [GS-6620, reference compound]",EC50,[1],27 ± 10 nM
same,solubility thermodynamic,[2]; [9],7.8 µM
same,Papp A→B,[3],1.8 ×10⁻⁶ cm/s
same,Papp B→A,[3],11 ×10⁻⁶ cm/s
same,efflux ratio,[3],5.8
same,half-life at 2 μM,[4],< 0.0333 h
same,half-life at 2 μM,[5],0.0933 h
same,half-life at 2 μM,[6],0.283 h
same,"Amidate ester cleavage, specific activity",[7],"4,163 pmol/min · μg"
same,"3′-Ester cleavage, specific activity",[8],60.1 pmol/min/µg
same,"Amidate ester cleavage, specific activity",[8],Stable
